Experimental data as given in US12391685B2, “Inhibitors of RNA-guided nuclease target binding and uses thereof” (THE BROAD INSTITUTE, INC., priority 2018, dated 2025).
“Also recorded” adds a separate entry of the source. Read-outs that look alike come from different tables or passages of the source.

Assays:
SpCas9:gRNA complex = target: T1, SpCas9:gRNA complex (Streptococcus pyogenes serotype M1, UniProt Q99ZW2); test: 19F NMR binding assay; set-up: species or system S. pyogenes; details: for receptor occupancy at 50 µM: read-out: Fractional Occupancy
T1 construct: made in house; host or cells: E. coli Rosetta (DE3)
T1 sequence (Q99ZW2 whole entry, one chain of several): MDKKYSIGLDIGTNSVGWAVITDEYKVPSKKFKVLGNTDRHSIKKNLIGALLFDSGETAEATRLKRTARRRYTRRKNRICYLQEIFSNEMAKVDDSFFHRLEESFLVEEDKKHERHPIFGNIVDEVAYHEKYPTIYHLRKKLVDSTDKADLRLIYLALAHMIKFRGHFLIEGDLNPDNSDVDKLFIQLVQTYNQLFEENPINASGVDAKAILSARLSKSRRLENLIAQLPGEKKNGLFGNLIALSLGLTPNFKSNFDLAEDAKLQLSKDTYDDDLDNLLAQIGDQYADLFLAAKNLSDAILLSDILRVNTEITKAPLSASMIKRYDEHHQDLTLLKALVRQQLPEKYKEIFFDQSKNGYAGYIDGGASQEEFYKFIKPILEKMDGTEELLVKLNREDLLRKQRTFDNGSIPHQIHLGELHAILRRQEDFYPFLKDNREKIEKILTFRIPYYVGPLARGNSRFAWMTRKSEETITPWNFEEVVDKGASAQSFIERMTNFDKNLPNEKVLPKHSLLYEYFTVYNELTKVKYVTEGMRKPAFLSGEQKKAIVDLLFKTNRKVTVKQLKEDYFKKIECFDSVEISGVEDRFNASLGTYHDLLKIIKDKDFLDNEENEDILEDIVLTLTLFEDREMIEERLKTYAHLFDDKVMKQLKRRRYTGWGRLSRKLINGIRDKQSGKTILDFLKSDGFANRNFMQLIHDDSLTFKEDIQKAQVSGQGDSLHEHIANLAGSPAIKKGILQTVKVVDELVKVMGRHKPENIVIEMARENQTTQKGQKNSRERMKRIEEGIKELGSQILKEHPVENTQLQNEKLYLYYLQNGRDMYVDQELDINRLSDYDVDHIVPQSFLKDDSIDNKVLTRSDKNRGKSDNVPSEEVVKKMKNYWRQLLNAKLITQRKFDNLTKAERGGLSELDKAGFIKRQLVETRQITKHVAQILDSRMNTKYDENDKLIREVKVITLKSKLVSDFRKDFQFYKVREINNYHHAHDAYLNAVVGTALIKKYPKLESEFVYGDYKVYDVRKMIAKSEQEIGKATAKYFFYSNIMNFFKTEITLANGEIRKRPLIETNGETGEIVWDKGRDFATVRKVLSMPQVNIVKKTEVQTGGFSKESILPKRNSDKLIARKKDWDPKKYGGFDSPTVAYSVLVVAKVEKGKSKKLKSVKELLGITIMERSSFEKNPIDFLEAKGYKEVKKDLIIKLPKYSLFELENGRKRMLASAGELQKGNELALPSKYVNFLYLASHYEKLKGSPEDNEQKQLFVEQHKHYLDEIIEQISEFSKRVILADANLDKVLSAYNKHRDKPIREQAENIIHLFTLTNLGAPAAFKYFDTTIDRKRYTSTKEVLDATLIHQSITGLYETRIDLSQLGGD
Procedure: Table 8 NMR parameters used for analysis of BRD7087 binding to SpCas9:gRNA complex. The binding study of BRD7087 to SpCas9:gRNA complex was analyzed based on the method described by Shortridge et. al. The linewidth (LW) increases with increasing SpCas9:gRNA concentration, as expected. Peak intensity values were used to measure the fractional occupancy using the equation Fractional Occupancy=(1−Ibound/I0), where I0 is the intensity of the peak with no protein in the sample. The peak area remains relatively constant, as expected for a fixed concentration of ligand.
NMR binding assay. All samples were prepared with 50 μM BRD7087 in 20 mM Tris buffer (pH 7.4) with varying concentrations of SpCas9:gRNA in a 3 mm NMR tube. Experiments were performed on a 600 MHZ (^19F: 564.71 MHZ) Bruker Avance III NMR spectrometer equipped with a 5 mm QCI-F CryoProbe and a SampleJet for automated sample handling. To acquire spectra, a standard one-pulse ^19F experiment with WALTZ-16 for proton decoupling during acquisition, a 5 second recycle delay, and 256 scans were used. All spectra were recorded at 280 K. NMR data were apodized with a 1 Hz exponential function prior to Fourier transformation. All spectra were baseline corrected, and peak widths and intensities were extracted using the automated line-fitting feature provided with the MNova software package.

SpCas9 = SpCas9 (Streptococcus pyogenes serotype M1, UniProt Q99ZW2); test: eGFP-disruption assay in U2OS.eGFP.PEST cells; type: cell-based, S. pyogenes; set-up: host or cells: U2OS.eGFP.PEST; details: for inhibition of SpCas9 in the eGFP-disruption assay (in words) / inhibition at 15 µM: U2OS.eGFP.PEST cells; for inhibition at 15 µM: screen of structural analogs of BRD7087, 15 μM compound
Sequence of SpCas9 (Q99ZW2 whole entry): as the sequence (Q99ZW2 whole entry, one chain of several) above
In short: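 U2OS.eGFP-PEST cells were nucleofected with SpCas9 plus eGFP Site #1 sgRNA, as plasmids or as preformed RNP (20 pmol). Compound or DMSO was present for 24 h post-transfection. Fixed cells were imaged with a nuclear counterstain, and the % GFP-negative cell population was quantified by automated microscopy.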

SpCas9:gRNA interaction = target: T2, SpCas9:gRNA interaction (Streptococcus pyogenes serotype M1, UniProt Q99ZW2); test: Fluorescence polarization assay for SpCas9-gRNA binding; set-up: species or system S. pyogenes; details: 10-30 μM
T2 construct: made in house; host or cells: E. coli Rosetta (DE3)
T2 sequence (Q99ZW2 whole entry): as the sequence (Q99ZW2 whole entry, one chain of several) above
Procedure: FIGS. 10A-10E—(FIG. 10A) Fluorescence polarization assay for detecting SpCas9-gRNA binding. A FITC-labeled crRNA:tracrRNA (25 nM) was titrated with an increasing amount of SpCas9 (7.5-250 nM). Error bars represent ±s.d. across technical replicates (n=3). […] An unlabeled crRNA:tracrRNA (25 nM) was pre-incubated with SpCas9 (25 nM) for 10 min before the addition of FITCcrRNA:tracrRNA (25 nM). Error bars represent ±s.d. across technical replicates (n=3). (FIG. 10C) Fluorescence polarization assay for determining the effect of BRD0539 in the SpCas9-FITCcrRNA:tracrRNA binding. SpCas9 (25 nM) was incubated with the indicated amount of BRD0539 (10-30 μM) for 15 min followed by the addition of FITC-crRNA:tracrRNA (25 nM), which was incubated for 30 min before measuring the FP signal. Error bars represent ±s.d. across technical replicates (n=3). (FIG. 10D) In vitro pulldown assay of SpCas9 by the BRD0539-biotin conjugate from WM793-SpCas9 cell lysate. Streptavidin magnetic beads pre-loaded with either BRD0539-biotin or biotin-azide were incubated with WM793-SpCas9 cell lysate for 12 h before processing the samples for western blotting. BRD0539 (20 μM) was used as a competitor. F and E represent the flow-through and eluent, respectively. […]

[1] = 50 μM BRD7087, 0.75 μM SpCas9:gRNA
[2] = 50 μM BRD7087, 1.0 μM SpCas9:gRNA
[3] = 50 μM BRD7087, 1.25 μM SpCas9:gRNA
[4] = 50 μM BRD7087, 1.5 μM SpCas9:gRNA
[5] = 50 μM BRD7087, 1.75 μM SpCas9:gRNA

For `OC[C@H]1Nc2ccc(-c3cccc(F)c3)cc2[C@H]2[C@@H]1CCN2Cc1ccncc1` [BRD7087, ((3aR,4S,9bR)-8-(3-Fluorophenyl)-1-(pyridin-4-ylmethyl)-2,3,3a,4,5,9b-hexahydro-1H-pyrrolo[3,2-c]quinolin-4-yl) methanol], the “LW (linewidth of 19F signal)” value (SpCas9:gRNA complex; [1]) was 4.3 Hz, the receptor occupancy at 50 µM (SpCas9:gRNA complex; [1]) was 13.1% and the “LW (linewidth of 19F signal)” value (SpCas9:gRNA complex; [2]) was 4.6 Hz. For the same compound, the receptor occupancy at 50 µM (SpCas9:gRNA complex; [2]) was 18.2%, the “LW (linewidth of 19F signal)” value (SpCas9:gRNA complex; [3]) was 5.3 Hz and the receptor occupancy at 50 µM (SpCas9:gRNA complex; [3]) was 30.4%. The “LW (linewidth of 19F signal)” value (SpCas9:gRNA complex; [4]) was 5.9 Hz, the receptor occupancy at 50 µM (SpCas9:gRNA complex; [4]) was 34.4% and the “LW (linewidth of 19F signal)” value (SpCas9:gRNA complex; [5]) was 6.3 Hz. For the same compound, the receptor occupancy at 50 µM (SpCas9:gRNA complex; [5]) was 40.1%, the “binding to SpCas9:gRNA by 19F line broadening (in words)” value (SpCas9:gRNA complex; significant broadening at protein concentrations as low as 0.75 μM) was “tight binding” and the “inhibition of SpCas9 in the eGFP-disruption assay (in words)” value (SpCas9) was “dose-dependent inhibition”. For the same compound, the inhibition at 10 µM (SpCas9; read-out: inhibition of SpCas9) was roughly 44%.
In the case of `Cc1ccc(S(=O)(=O)N2CC[C@@H]3[C@H](CO)Nc4ccc(-c5ccccc5F)cc4[C@@H]32)cc1` [BRD0539, ((3aR,4R,9bR)-8-(2-fluorophenyl)-1-tosyl-2,3,3a,4,5,9b-hexahydro-1H-pyrrolo[3,2-c]quinolin-4-yl) methanol], the “effect on SpCas9-FITC-crRNA:tracrRNA polarization signal” value (SpCas9:gRNA interaction) is reported as “did not perturb the polarization signal”, the EC50 (SpCas9; EC50, dose-dependent inhibition of SpCas9, U2OS.eGFP.PEST cells, 24 h, tested from 2.8-17.3 μM) is reported as 11.5 µM and the “inhibition of SpCas9 in the eGFP-disruption assay (in words)” value (SpCas9) is reported as “dose-dependent inhibitory activity; also recorded: able to inhibit”. The “improvement in potency over BRD7087” value (SpCas9; eGFP-disruption assay) was 1.8 fold, the EC50 (SpCas9; eGFP-disruption assay, read-out: apparent EC50) was 11 µM and the inhibition at 15 µM (SpCas9; 24 h, read-out: Average Inhibition activity) was 64.2%. The inhibition at 15 µM (SpCas9; 24 h, read-out: Inhibition activity Rep 1) was 61%, the inhibition at 15 µM (SpCas9; 24 h, read-out: Inhibition activity Rep 2) was 67.4% and the “potency among the four stereoisomers” value (SpCas9; tested from 2.5-15 μM, 24 h) was “most potent”.
